Experiments:
[1] = tested on: Glomerella lagenarium (Colletotrichum lagenarium); experiment: Glomerella lagenarium (Colletotrichum lagenarium) / liquid culture (anthracnose); format: cell-based; settings: Colletotrichum orbiculare, PDB liquid culture, 24° C., growth inhibition measured photometrically 3-4 days after application, vs untreated control
Description: (§1) Example B2: Glomerella lagenarium (Colletotrichum lagenarium)/Liquid Culture (Anthracnose) Conidia of the fungus from cryogenic storage are directly mixed into nutrient broth (PDB potato dextrose broth). After placing a (DMSO) solution of test compound into a microtiter plate (96-well format), the nutrient broth containing the fungal spores is added. The test plates are incubated at 24° C. and the inhibition of growth is measured photometrically 3-4 days after application. […] […]-49, and P-50.

[2] = tested on: Monographella nivalis (Microdochium nivale); experiment: Monographella nivalis (Microdochium nivale) / liquid culture (foot rot cereals); format: cell-based; settings: PDB liquid culture, 24° C., growth inhibition determined photometrically 4-5 days after application, vs untreated control
Description: as §1, with “B5: Monographella nivalis (Microdochium nivale)/Liquid” for “B2: Glomerella lagenarium (Colletotrichum lagenarium)/Liquid”, “(Foot Rot Cereals)” for “(Anthracnose)”, “determined” for “measured”, “4-5” for “3-4”

[3] = tested on: Mycosphaerella arachidis (Cercospora arachidicola); experiment: Mycosphaerella arachidis (Cercospora arachidicola) / liquid culture (early leaf spot); format: cell-based; settings: PDB liquid culture, 24° C., growth inhibition determined photometrically 4-5 days after application, vs untreated control
Description: Example B6: Mycosphaerella arachidis (Cercospora arachidicola)/Liquid Culture (Early Leaf Spot) Conidia of the fungus from cryogenic storage are directly mixed into nutrient broth (PDB potato dextrose broth). After placing a (DMSO) solution of test compound into a microtiter plate (96-well format), the nutrient broth containing the fungal spores is added. The test plates are incubated at 24° C. and the inhibition of growth is determined photometrically 4-5 days after application. […] […]-44, and P-48.

[4] = tested on: Mycosphaerella graminicola (Septoria tritici); experiment: Mycosphaerella graminicola (Septoria tritici) / liquid culture (Septoria blotch); format: cell-based; settings: Zymoseptoria tritici, PDB liquid culture, 24° C., growth inhibition determined photometrically 4-5 days after application, vs untreated control
Description: Example B12: Mycosphaerella graminicola (Septoria tritici)/Liquid Culture (Septoria Blotch) Conidia of the fungus from cryogenic storage are directly mixed into nutrient broth (PDB potato dextrose broth). After placing a (DMSO) solution of test compound into a microtiter plate (96-well format), the nutrient broth containing the fungal spores is added. The test plates are incubated at 24° C. and the inhibition of growth is determined photometrically 4-5 days after application. […] […]-48, and P-49.

Alternaria solani = Alternaria solani / tomato / leaf disc (early blight); format: in vivo; settings: foliar, tomato leaf disks cv. Baby, inoculated 2 days after application, assessed 5-7 days after application, vs untreated control
Description: Example B1: Alternaria solani/Tomato/Leaf Disc (Early Blight) Tomato leaf disks cv. Baby are placed on agar in multiwell plates (24-well format) and sprayed with the formulated test compound diluted in water. The leaf disks are inoculated with a spore suspension of the fungus 2 days after application. The inoculated leaf disks are incubated at 23° C./21° C. […] […]-43, and P-44.

[5] = tested on: Blumeria graminis f. sp. tritici (Erysiphe graminis f. sp. tritici); experiment: Blumeria graminis f. sp. tritici / wheat / leaf disc preventative (powdery mildew on wheat); format: in vivo; settings: foliar, wheat leaf segments cv. Kanzler, inoculated 1 day after application, assessed 6-8 days after application, vs untreated control
Description: Example B3: Blumeria graminis f. sp. tritici (Erysiphe graminis f. so. tritici)/Wheat/Leaf Disc Preventative (Powdery Mildew on Wheat) Wheat leaf segments cv. Kanzler are placed on agar in a multiwell plate (24-well format) and sprayed with the formulated test compound diluted in water. The leaf disks are inoculated by shaking powdery mildew infected plants above the test plates 1 day after application. The inoculated leaf disks are incubated at 20°° C. and 60% rh under a light regime of 24 h darkness followed by 12 h light/12 h darkness in a climate chamber and the activity of a compound is assessed as percent disease control compared to untreated when an appropriate level of disease damage appears on untreated check leaf segments (6-8 days after application). […]-45, and P-50.

[6] = tested on: Puccinia recondita f. sp. tritici; experiment: Puccinia recondita f. sp. tritici / wheat / leaf disc preventative (brown rust); format: in vivo; settings: foliar, wheat leaf segments cv. Kanzler, inoculated 1 day after application, assessed 7-9 days after application, vs untreated control
Description: Example B8: Puccinia recondita f. sp. tritici/Wheat/Leaf Disc Preventative (Brown rust) Wheat leaf segments cv. Kanzler are placed on agar in multiwell plates (24-well format) and sprayed with the formulated test compound diluted in water. The leaf disks are inoculated with a spore suspension of the fungus 1 day after application. The inoculated leaf segments are incubated at 19° C. and 75% rh under a light regime of 12 h light/12 h darkness in a climate cabinet and the activity of a compound is assessed as percent disease control compared to untreated when an appropriate level of disease damage appears in untreated check leaf segments (7-9 days after application).

[7] = tested on: Magnaporthe grisea (Pyricularia oryzae); experiment: whole plant or invertebrate; format: in vivo; settings: foliar, read-out: control of Magnaporthe grisea

COc1ncc(NC2CCCC2)nc1C(=O)NC1CCC1(C)C (centres unmarked) [Compound P-1, 6-(cyclopentylamino)-N-(2,2-dimethylcyclobutyl)-3-methoxy-pyrazine-2-carboxamide]
≥ 80%: inhibition of growth at 20 ppm [1] | inhibition of growth at 20 ppm [2] | inhibition of growth at 20 ppm [3] | inhibition of growth at 20 ppm [4]

COc1ncc(Nc2ccccc2)nc1C(=O)NC1CCC1(C)C (centres unmarked) [Compound P-4, 6-anilino-N-(2,2-dimethylcyclobutyl)-3-methoxy-pyrazine-2-carboxamide]
≥ 80%: pest or weed control at 200 ppm (Alternaria solani) | inhibition of growth at 20 ppm [1] | pest or weed control at 200 ppm [5] | inhibition of growth at 20 ppm [2] | inhibition of growth at 20 ppm [3] | pest or weed control at 200 ppm [6] | inhibition of growth at 20 ppm [4]

COc1ncc(NCC(C)(C)O)nc1C(=O)NC1CCC1(C)C (centres unmarked) [Compound P-8, N-(2,2-dimethylcyclobutyl)-6-[(2-hydroxy-2-methyl-propyl)amino]-3-methoxy-pyrazine-2-carboxamide]
≥ 80%: inhibition of growth at 20 ppm [1] | pest or weed control at 200 ppm [5] | inhibition of growth at 20 ppm [2]

COc1ncc(NCC2CC2)nc1C(=O)NC1CCC1(C)C (centres unmarked) [Compound P-9, 6-(cyclopropylmethylamino)-N-(2,2-dimethylcyclobutyl)-3-methoxy-pyrazine-2-carboxamide]
≥ 80%: pest or weed control at 200 ppm (Alternaria solani) | inhibition of growth at 20 ppm [1] | pest or weed control at 200 ppm [5] | inhibition of growth at 20 ppm [2] | inhibition of growth at 20 ppm [3] | pest or weed control at 200 ppm [6] | inhibition of growth at 20 ppm [4]

COc1ncc(Nc2cnsc2)nc1C(=O)NCc1ccc(Oc2ccccc2)cc1 [Compound P-13, 6-(isothiazol-4-ylamino)-3-methoxy-N-[(4-phenoxyphenyl)methyl] pyrazine-2-carboxamide]
≥ 80%: pest or weed control at 200 ppm (Alternaria solani) | inhibition of growth at 20 ppm [1] | inhibition of growth at 20 ppm [2] | inhibition of growth at 20 ppm [3] | pest or weed control at 200 ppm [7] | inhibition of growth at 20 ppm [4]

COc1ncc(Nc2cc(F)cc(F)c2)nc1C(=O)NC1C2CCOC2C1(C)C (centres unmarked) [Compound P-16, 6-(3,5-difluoroanilino)-N-(7,7-dimethyl-2-oxabicyclo[3.2.0]heptan-6-yl)-3-methoxy-pyrazine-2-carboxamide]
≥ 80%: pest or weed control at 200 ppm (Alternaria solani) | inhibition of growth at 20 ppm [1] | pest or weed control at 200 ppm [5] | inhibition of growth at 20 ppm [2] | inhibition of growth at 20 ppm [3] | pest or weed control at 200 ppm [7] | inhibition of growth at 20 ppm [4]

COc1ncc(Nc2cc(F)cc(F)c2)nc1C(=O)NCC1(C)CCOC1 (centres unmarked) [Compound P-21]
≥ 80%: inhibition of growth at 20 ppm [1] | pest or weed control at 200 ppm [5] | inhibition of growth at 20 ppm [2] | pest or weed control at 200 ppm [7] | inhibition of growth at 20 ppm [4]

COc1ncc(Nc2cc(F)cc(F)c2)nc1C(=O)NC1COC(C2CC2)C1 (centres unmarked) [Compound P-24, N-(5-cyclopropyltetrahydrofuran-3-yl)-6-(3,5-difluoroanilino)-3-methoxy-pyrazine-2-carboxamide]
≥ 80%: inhibition of growth at 20 ppm [1] | pest or weed control at 200 ppm [5] | inhibition of growth at 20 ppm [2] | inhibition of growth at 20 ppm [3] | inhibition of growth at 20 ppm [4]

COc1ncc(Nc2cc(F)cc(F)c2)nc1C(=O)NC1CC2CCOC21 (centres unmarked) [Compound P-28, 6-(3,5-difluoroanilino)-3-methoxy-N-(2-oxabicyclo[3.2.0]heptan-7-yl)pyrazine-2-carboxamide]
≥ 80%: pest or weed control at 200 ppm (Alternaria solani) | inhibition of growth at 20 ppm [1] | pest or weed control at 200 ppm [5] | pest or weed control at 200 ppm [7]

COc1ncc(Nc2cc(F)cc(F)c2)nc1C(=O)NCc1cccc2c1OC(F)(F)O2 [Compound P-29, 6-(3,5-difluoroanilino)-N-[(2,2-difluoro-1.3-benzodioxol-4-yl)methyl]-3-methoxy-pyrazine-2-carboxamide]
≥ 80%: inhibition of growth at 20 ppm [1] | inhibition of growth at 20 ppm [2] | inhibition of growth at 20 ppm [3] | pest or weed control at 200 ppm [6] | pest or weed control at 200 ppm [7] | inhibition of growth at 20 ppm [4]

COc1ncc(Nc2cc(F)cc(F)c2)nc1C(=O)NCc1ccc(Oc2ccccc2)cc1 [Compound P-30]
≥ 80%: pest or weed control at 200 ppm (Alternaria solani) | inhibition of growth at 20 ppm [1] | pest or weed control at 200 ppm [5] | inhibition of growth at 20 ppm [2] | inhibition of growth at 20 ppm [3] | pest or weed control at 200 ppm [7] | inhibition of growth at 20 ppm [4]

COc1ncc(Nc2cc(F)nc(F)c2)nc1C(=O)NCC1(C)CCOC2(CCC2)C1 (centres unmarked) [Compound P-34]
≥ 80%: inhibition of growth at 20 ppm [1] | pest or weed control at 200 ppm [6] | pest or weed control at 200 ppm [7]

COc1ncc(Nc2cc(F)nc(F)c2)nc1C(=O)NCC1(C(F)(F)F)CC1 [Compound P-35, 6-[(2,6-difluoro-4-pyridyl)amino]-3-methoxy-N-[[1-(trifluoromethyl)cyclopropyl]methyl] pyrazine-2-carboxamide]
≥ 80%: inhibition of growth at 20 ppm [1] | pest or weed control at 200 ppm [5] | pest or weed control at 200 ppm [7]

COc1ncc(Nc2cc(F)cc(F)c2)nc1C(=O)NC1(C)CC1 [Compound P-37, 6-(3,5-difluoroanilino)-3-methoxy-N-(1-methylcyclopropyl) pyrazine-2-carboxamide]
≥ 80%: pest or weed control at 200 ppm (Alternaria solani) | inhibition of growth at 20 ppm [1] | pest or weed control at 200 ppm [5] | inhibition of growth at 20 ppm [2] | pest or weed control at 200 ppm [6] | pest or weed control at 200 ppm [7] | inhibition of growth at 20 ppm [4]

COc1ncc(Nc2cc(F)cc(F)c2)nc1C(=O)NC(C)CCCC(C)C (centres unmarked) [Compound P-40, 6-(3,5-difluoroanilino)-N-(1,5-dimethylhexyl)-3-methoxy-pyrazine-2-carboxamide]
≥ 80%: inhibition of growth at 20 ppm [1] | pest or weed control at 200 ppm [5] | inhibition of growth at 20 ppm [2] | inhibition of growth at 20 ppm [3] | pest or weed control at 200 ppm [6] | pest or weed control at 200 ppm [7] | inhibition of growth at 20 ppm [4]

CC1(NC(=O)c2cncc(Nc3cc(F)cc(F)c3)n2)CCCC1 [Compound P-48, 6-(3,5-difluoroanilino)-N-(1-methylcyclopentyl) pyrazine-2-carboxamide]
≥ 80%: inhibition of growth at 20 ppm [1] | inhibition of growth at 20 ppm [2] | inhibition of growth at 20 ppm [3] | inhibition of growth at 20 ppm [4]

Cc1ncc(Nc2cc(F)nc(F)c2)nc1C(=O)NC1CCC1(C)C (centres unmarked) [Compound P-50, 6-[(2,6-difluoro-4-pyridyl)amino]-N-(2,2-dimethylcyclobutyl)-3-methyl-pyrazine-2-carboxamide]
≥ 80%: inhibition of growth at 20 ppm [1] | pest or weed control at 200 ppm [5] | inhibition of growth at 20 ppm [2] | pest or weed control at 200 ppm [7]

From patent US12528778B2, “Microbiocidal derivatives” (SYNGENTA CROP PROTECTION AG, priority 2019, dated 2026)
